Measured values as given in publication PMC6273954, “Antileishmanial Activity and Structure-Activity Relationship of Triazolic Compounds Derived from the Neolignans Grandisin, Veraguensin, and Machilin G” (Molecules, 2016).
Values after ≈ are worked out from the molar mass of the structure shown. Read-outs that look alike come from different tables or passages of the source.

Assays:
[1] = system: L. (L.) amazonensis intracellular amastigotes; experiment: In vitro antileishmanial activity on intracellular amastigotes in peritoneal macrophages; assay type: cell-based, Leishmania (Leishmania) amazonensis; set-up: key to activity class against intracellular amastigotes: active (<20 µM); moderately active (20–50 µM); potentially inactive (>50 µM); settings: for IC50: Leishmania amazonensis, Peritoneal macrophage; for concentration from which infection index was significantly decreased / effect on infection index: versus untreated cells
Method: In vitro antileishmanial activity was evaluated on peritoneal macrophages infected with. L. (L.) amazonensis intracellular amastigotes. Parasites (IFLA/BR/1967/PH8 strain) were routinely isolated from BALB/c mice and maintained as promastigotes at 25 °C in Schneider's Insect Medium (Sigma-Aldrich®, St. Louis, MO, USA) supplemented with 20% fetal calf serum (FCS-Cultilab® Campinas, Brazil) and 140 μg·mL^-1 gentamicin (Sigma-Aldrich®). Macrophages were obtained from peritoneal wash of BALB/c mice after euthanasia. 10 mL of RPMI 1640 (Sigma-Aldrich®) supplemented with 2% L-glutamine, 2.8% bicarbonate buffer, 100 U·mL^-1 penicillin and […] streptomycin were injected into the peritoneal cavity. After massage area, liquid was aspirated and transferred to tubes on ice. Peritoneal cells were quantified in Neubauer chamber after cellular exclusion with Trypan Blue staining (Sigma-Aldrich®). Peritoneal cells (1 × 10^5 cells/well) were added to 24-well plates containing circular coverslips. Plates were incubated for one hour at 37 °C/5% CO2 to allow cell adhesion and then 1 × 10^6 L. (L.) amazonensis promastigotes were added to each well. Plates were incubated at 35 °C/5% CO2 for four hours and then cells were treated for 24 h with synthetic compounds 4-19 (6.25-50 μg·mL^-1). Amphotericin B (Sigma-Aldrich®) was used as the reference drug (0.25 to 2 μg·mL^-1) and untreated cells were used as negative control. Coverslips were processed as described by Rizk et al.. The overall number of amastigotes was determined by counting 100 cells in six replicates. The half maximal inhibitory concentration (IC50) was calculated using a nonlinear regression curve. Infection index was obtained as described by […] et al..

[2] = system: J774.A1 cells; experiment: Cytotoxicity assay (sulforhodamine B); assay type: cell-based, murine; settings: for SI (selectivity index): IC50 on mammalian cells/IC50 on intracellular amastigotes; for IC50: Mus musculus, J774.A1, murine macrophages, 48 h, sulforhodamine B; for cytotoxicity on mammalian cells: J774.A1 macrophages
Method: Amphotericin B (Sigma-Aldrich®) was used as the reference drug (0.025–25 µg·mL^−1). Cell growth was evaluated according to Skehan et al. using the sulforhodamine B assay. Dimethyl sulfoxide (DMSO, Vetec®, Rio de Janeiro, Brazil) was used as negative control at the concentration used to solubilize the highest concentration of compounds. IC50 was calculated by nonlinear regression curve. Selectivity index was calculated according to Medeiros et al..

[3] = system: L. amazonensis infected macrophages; experiment: Nitric oxide production by infected and treated peritoneal cells (Griess); assay type: cell-based, BALB/c mice
Method: To evaluate the nitric oxide production (NO) by infected and treated peritoneal cells, 50 µL of culture supernatant from the antileishmanial assay were collected and incubated with equal volume of Griess reagent (1% sulfanilamide /0.1% naphthalene diamine in 5% phosphoric acid) for 10 min at room temperature. According to Ding et al., the absorbance was determined at 540 nm and converted to NO2^− (µM) by comparing to a standard curve of known concentrations of sodium nitrite (1–10 µM) in RPMI medium (Sigma-Aldrich®).

[4] = system: L. (L.) amazonensis promastigotes; settings: cited from earlier work
[5] = system: L. donovani promastigote forms; set-up: method as in PMID 18688887; settings: cited from earlier work
[6] = in Mus musculus, infected BALB/c peritoneal macrophages, treated 24 h, read-out: Intracellular Amastigotes IC50
[7] = at the highest concentration(s) tested, compared to control
[8] = classified by IC50 according to Upegui et al.
[9] = 24 h, classified by IC50 according to Upegui et al., read-out: activity class against intracellular amastigotes
[10] = 24 h after treatment, compared to untreated infected cells (control)
[11] = at the lowest concentrations tested, compared to control
[12] = highest reduction reached / at the highest concentration, 24 h after treatment

C[C@@H]1[C@H](O)[C@@H](C)/C=C/C=C/C=C/C=C/C=C/C=C/C=C/[C@H](O[C@@H]2O[C@H](C)[C@@H](O)[C@H](N)[C@@H]2O)C[C@@H]2O[C@](O)(C[C@@H](O)C[C@@H](O)[C@H](O)CC[C@@H](O)C[C@@H](O)CC(=O)O[C@H]1C)C[C@H](O)[C@H]2C(=O)O [Amphotericin B, reference compound]
IC50 [1, 6]: 0.7 µM | SI (selectivity index) [2]: 3.1 | IC50 [2]: 2.2 µM

COc1ccc(-c2cn(-c3ccc(OC)cc3)nn2)cc1 [Compound 4]
nitric oxide (NO) production [3, 7]: increase of NO production | IC50 [1, 6]: 13.1 µM | activity class against intracellular amastigotes [1, 8]: active | SI (selectivity index) [2]: 66.9 | IC50 [2]: 877 µM

COc1ccc(-c2cn(-c3ccc(OC)c(OC)c3)nn2)cc1OC [Compound 5]
nitric oxide (NO) production ([3]; at 25 µg·mL−1, compared to control): lower than control | concentration from which infection index was significantly decreased ([1]; 24 h after treatment): 12.5 µg/mL | IC50 [1, 9]: 20 to 50 µM | IC50 [1, 6]: 21.3 µM | SI (selectivity index) [2]: 3.6 | IC50 [2]: 76.4 µM

COc1cc(-c2cn(-c3cc(OC)c(OC)c(OC)c3)nn2)cc(OC)c1OC [Compound 6]
nitric oxide (NO) production [3, 10]: increased production of nitric oxide | concentration from which infection index was significantly decreased ([1]; 24 h after treatment): 6.25 µg/mL | IC50 [1, 6]: 9.4 µM | reduction of infection index ([1]; at 50 µg·mL−1, 24 h after treatment): 98.6% | activity class against intracellular amastigotes [1, 8]: active | SI (selectivity index) [2]: >66.2 | IC50 [2]: > 623 µM | activity on promastigote forms [4]: inactive on promastigote forms

c1cc2c(cc1-c1cn(-c3ccc4c(c3)OCO4)nn1)OCO2 [Compound 7]
IC50 [1, 9]: 20 to 50 µM | IC50 [1, 6]: 20.4 µM | SI (selectivity index) [2]: 4.2 | IC50 [2]: 86.2 µM

COc1ccc(-c2cn(-c3ccc(OC)c(OC)c3)nn2)cc1 [Compound 8]
IC50 [1, 6]: 16 µM | activity class against intracellular amastigotes [1, 8]: active | SI (selectivity index) [2]: 4.9 | IC50 [2]: 79.2 µM

COc1ccc(-n2cc(-c3ccc(OC)c(OC)c3)nn2)cc1 [Compound 9]
IC50 [1, 6]: 18.3 µM | activity class against intracellular amastigotes [1, 8]: active | SI (selectivity index) [2]: 1.2 | IC50 [2]: 22.6 µM

COc1ccc(-c2cn(-c3cc(OC)c(OC)c(OC)c3)nn2)cc1 [Compound 10]
IC50 [1, 6]: 16.8 µM | activity class against intracellular amastigotes [1, 8]: active | SI (selectivity index) [2]: 3.9 | IC50 [2]: 65.4 µM

COc1ccc(-n2cc(-c3cc(OC)c(OC)c(OC)c3)nn2)cc1 [Compound 11]
nitric oxide (NO) production [3, 7]: higher than control | nitric oxide (NO) production [3, 11]: lower than untreated cells | IC50 [1, 6]: 16.5 µM | activity class against intracellular amastigotes [1, 8]: active | SI (selectivity index) [2]: 4.1 | IC50 [2]: 67.5 µM

COc1ccc(-c2cn(-c3ccc4c(c3)OCO4)nn2)cc1 [Compound 12]
nitric oxide (NO) production [3, 10]: increase in NO production | nitric oxide (NO) production [3, 7]: increase of NO production | IC50 [1, 6]: 14.8 µM | activity class against intracellular amastigotes [1, 8]: active | SI (selectivity index) [2]: 6.5 | IC50 [2]: 96.5 µM

COc1ccc(-n2cc(-c3ccc4c(c3)OCO4)nn2)cc1 [Compound 13]
nitric oxide (NO) production [3, 10]: increase in NO production | IC50 [1, 6]: 50.7 µM | activity class against intracellular amastigotes [1, 8]: did not show potential activity | SI (selectivity index) [2]: 2.6 | IC50 [2]: 135 µM

COc1ccc(-c2cn(-c3cc(OC)c(OC)c(OC)c3)nn2)cc1OC [Compound 14]
nitric oxide (NO) production [3, 10]: induced nitric oxide production | nitric oxide (NO) production [3, 11]: significantly induced NO production | effect on infection index ([1]; 24 h after treatment): reduced the infection index at all concentrations tested | IC50 [1, 6]: 5.6 µM | activity class against intracellular amastigotes [1, 8]: active | reduction of infection index [1, 12]: 86.4% | SI (selectivity index) [2]: 14.1 | cytotoxicity on mammalian cells [2]: low cytotoxicity on mammalian cells | IC50 [2]: 79.1 µM

COc1ccc(-n2cc(-c3cc(OC)c(OC)c(OC)c3)nn2)cc1OC [Compound 15]
IC50 [1, 9]: 20 to 50 µM | IC50 [1, 6]: 29.2 µM | SI (selectivity index) [2]: 2.6 | IC50 [2]: 76.9 µM

COc1ccc(-c2cn(-c3ccc4c(c3)OCO4)nn2)cc1OC [Compound 16]
nitric oxide (NO) production [3, 10]: significantly induce NO production | IC50 [1, 9]: 20 to 50 µM | IC50 [1, 6]: 32.7 µM | SI (selectivity index) [2]: >23.5 | IC50 [2]: > 768 µM

COc1ccc(-n2cc(-c3ccc4c(c3)OCO4)nn2)cc1OC [Compound 17]
IC50 [1, 9]: 20 to 50 µM | IC50 [1, 6]: 29.9 µM | SI (selectivity index) [2]: 0.3 | cytotoxicity on mammalian cells [2]: toxic for the macrophages | IC50 [2]: 9.2 µM

COc1cc(-c2cn(-c3ccc4c(c3)OCO4)nn2)cc(OC)c1OC [Compound 18]
nitric oxide (NO) production [3, 10]: did not induce a significant production of NO | IC50 [1, 9]: 20 to 50 µM | IC50 [1, 6]: 29.8 µM | reduction of infection index [1, 12]: 92.1% | SI (selectivity index) [2]: 2.2 | IC50 [2]: 66.9 µM

COc1cc(-n2cc(-c3ccc4c(c3)OCO4)nn2)cc(OC)c1OC [Compound 19]
nitric oxide (NO) production [3, 10]: induced nitric oxide production | nitric oxide (NO) production [3, 7]: twice as high than control | effect on infection index ([1]; 24 h after treatment): significantly reduced the infection index | IC50 [1, 6]: 4.4 µM | activity class against intracellular amastigotes [1, 8]: active | SI (selectivity index) [2]: 10.6 | cytotoxicity on mammalian cells [2]: low cytotoxicity on mammalian cells | IC50 [2]: 46.9 µM | IC50 ([4]; read-out: IC50 against L. (L.) amazonensis promastigote forms): 7.2 µM

COc1cccc2c1C(=O)c1c(O)c3c(c(O)c1C2=O)C[C@@](O)(C(=O)CO)C[C@@H]3O[C@H]1C[C@H](N)[C@H](O)[C@H](C)O1 [Doxorubicin, reference compound]
IC50 [2]: 0.5 µM

COc1cc([C@@H]2O[C@@H](c3cc(OC)c(OC)c(OC)c3)[C@H](C)[C@H]2C)cc(OC)c1OC [grandisin]
IC50 on L. (L.) amazonensis promastigotes [4]: 42.4 µg/mL (≈ 98 µM) | IC50 ([4]; read-out: IC50 on L. (L.) amazonensis promastigotes): 98 µM

COc1ccc([C@H]2O[C@@H](c3ccc(OC)c(OC)c3)[C@H](C)[C@H]2C)cc1OC [veraguensin]
IC50 [5]: 48.3 µM | activity on L. donovani promastigote forms [5]: 18 µg/mL
